Activity calls are given as the source filed them. The calls are words filed in the database; no cut-off is given here.
Assays:
[1] = molecular target: T1, Snake venom metalloproteinase BaP1 (Bothrops asper, UniProt P83512); assay: Inhibition of Bothrops asper venom metalloprotease BaP1 assessed as reduction in proteolytic activity using azocasein as substrate measured after 90 mins by colorimetric method
T1 sequence (P83512 whole entry): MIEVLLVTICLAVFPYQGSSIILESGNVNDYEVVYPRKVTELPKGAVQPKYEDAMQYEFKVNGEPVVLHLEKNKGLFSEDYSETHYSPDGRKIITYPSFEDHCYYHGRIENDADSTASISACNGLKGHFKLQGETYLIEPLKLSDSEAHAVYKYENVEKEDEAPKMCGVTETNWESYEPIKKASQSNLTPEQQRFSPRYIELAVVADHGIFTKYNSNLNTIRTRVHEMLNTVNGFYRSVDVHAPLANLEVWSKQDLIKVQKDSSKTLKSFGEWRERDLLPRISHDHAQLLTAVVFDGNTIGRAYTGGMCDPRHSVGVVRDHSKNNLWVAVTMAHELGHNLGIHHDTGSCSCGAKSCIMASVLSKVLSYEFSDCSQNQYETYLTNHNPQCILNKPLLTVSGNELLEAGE

[2] = molecular target: T2, Snake venom metalloproteinase BaP1 (Bothrops asper) (UniProt P83512); assay: Inhibition of Bothrops asper venom metalloprotease BaP1 assessed as reduction in proteolytic activity at 100 umol/dm3 using azocasein as substrate measured after 90 mins by colorimetric method relative to control
T2 sequence (whole entry): T1 sequence (P83512 whole entry)

[3] = molecular target: T1, Snake venom metalloproteinase BaP1; assay: Binding affinity to Bothrops asper venom metalloprotease BaP1 assessed as Stern-Volmer quenching constant by fluorescence spectroscopic method
[4] = molecular target: T2, Snake venom metalloproteinase BaP1 (Bothrops asper); assay: Binding affinity to Bothrops asper venom metalloprotease BaP1 by fluorescence spectroscopic method
[5] = molecular target: T2, Snake venom metalloproteinase BaP1 (Bothrops asper); assay: Binding affinity to Bothrops asper venom metalloprotease BaP1 assessed as red shift by fluorescence spectroscopic method

Structure (SMILES) | IC50 [1] [µM] | inhibition [2] [%] | Kd [3] [µM] | Activity [4] | Activity [5] [nm]
Cc1ccc(OCC(=O)N/N=C2\C(=O)NC(=O)N=C2O)cc1 | 20 | 98 | 37.1 | Active | 11
CC(C)c1ccc(OCC(=O)N/N=C2\C(=O)NC(=O)N=C2O)cc1 | 17 | 95 | 33.6 | Active | 7

From ChEMBL document CHEMBL4014297, “Discovery of small molecule inhibitors for the snake venom metalloprotease BaP1 using in silico and in vitro tests” (Bioorg Med Chem Lett, 2017)
